Test results: patent US12486244B2, “Preparation of semicarbazide-sensitive amine oxidase inhibitor and use thereof” (ENNOVABIO (ZHEJIANG) PHARMACEUTICALS CO., LTD., priority 2020, dated 2025)

How the values were obtained:
Format in all cases: biochemical
Recombinant human MAO-B = biological target: T1, Recombinant human MAO-B (Homo sapiens, UniProt P27338); assay: Inhibitory activity on MAO-B (MAO-Glo assay); conditions: recombinant human MAO-B 300 nM; compound 100 μM to 5 nM
T1 construct: purchased Sigma M7441
T1 sequence (P27338 1-520): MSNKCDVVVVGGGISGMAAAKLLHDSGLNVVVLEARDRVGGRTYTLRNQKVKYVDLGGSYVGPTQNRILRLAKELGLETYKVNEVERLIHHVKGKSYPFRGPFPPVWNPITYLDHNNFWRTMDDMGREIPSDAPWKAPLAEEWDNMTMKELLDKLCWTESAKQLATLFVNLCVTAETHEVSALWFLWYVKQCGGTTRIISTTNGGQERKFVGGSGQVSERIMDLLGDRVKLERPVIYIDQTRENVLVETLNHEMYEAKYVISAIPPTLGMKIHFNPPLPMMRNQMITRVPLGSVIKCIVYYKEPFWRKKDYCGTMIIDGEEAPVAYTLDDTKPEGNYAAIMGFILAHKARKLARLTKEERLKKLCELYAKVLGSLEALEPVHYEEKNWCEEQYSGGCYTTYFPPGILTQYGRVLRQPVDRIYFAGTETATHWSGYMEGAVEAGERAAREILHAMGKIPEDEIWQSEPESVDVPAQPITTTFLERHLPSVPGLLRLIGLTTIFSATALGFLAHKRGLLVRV
Procedure: (§1) This assay was used to evaluate the in vitro inhibitory activity of the compounds against SSAO/VAP-1 of different species. Recombinant human SSAO protein, mouse SSAO protein or rat SSAO protein (provided by Eli Lilly) were used. The enzyme activity detection kit, MAO-Glo Assay kit (V1402) was purchased from Promega. Enzyme reaction buffer (50 mM HEPES, 120 mM NaCl, 5 mM KCl, 2 mM CaCl2, 1.4 mM MgCl2, 0.001% Tween-20, pH 7.4) was prepared. The test compounds were dissolved in DMSO and serially diluted by 3-fold. The final concentration of test compound in a 10 μL reaction system was 1 μM to 0.05 nM when SSAO activity was detected. The content of DMSO in the detection reaction system was 1%. After the DMSO solution of test compounds was diluted in the enzyme reaction buffer at a volume ratio of 1:25, 2.5 μL of the solution was added to each well of detection plate with two replicates for each concentration. […] The reaction solution was incubated for 20 minutes at room temperature, and the plate was read with Synergy Neo 2 for detection. […]
(§2) Signalpositive was signal of positive control wells without test compounds added. […] IC50 value was calculated by using 4 parameters curve fitting.
(§3) Recombinant human MAO-A and MAO-B protein was purchased from Sigma (M7316, M7441). […] The final concentration of test compound in 10 μL reaction system was 100 μM to 5 nM when MAO-A and MAO-B activity were detected. […]

[1] = biological target: T2, Recombinant human SSAO protein (Homo sapiens, UniProt Q16853); assay: In vitro inhibitory activity on SSAO/VAP-1 (MAO-Glo assay); conditions: compound 1 μM to 0.05 nM
T2 construct: Eli Lilly (provided, not purchased)
T2 sequence (Q16853 1-763): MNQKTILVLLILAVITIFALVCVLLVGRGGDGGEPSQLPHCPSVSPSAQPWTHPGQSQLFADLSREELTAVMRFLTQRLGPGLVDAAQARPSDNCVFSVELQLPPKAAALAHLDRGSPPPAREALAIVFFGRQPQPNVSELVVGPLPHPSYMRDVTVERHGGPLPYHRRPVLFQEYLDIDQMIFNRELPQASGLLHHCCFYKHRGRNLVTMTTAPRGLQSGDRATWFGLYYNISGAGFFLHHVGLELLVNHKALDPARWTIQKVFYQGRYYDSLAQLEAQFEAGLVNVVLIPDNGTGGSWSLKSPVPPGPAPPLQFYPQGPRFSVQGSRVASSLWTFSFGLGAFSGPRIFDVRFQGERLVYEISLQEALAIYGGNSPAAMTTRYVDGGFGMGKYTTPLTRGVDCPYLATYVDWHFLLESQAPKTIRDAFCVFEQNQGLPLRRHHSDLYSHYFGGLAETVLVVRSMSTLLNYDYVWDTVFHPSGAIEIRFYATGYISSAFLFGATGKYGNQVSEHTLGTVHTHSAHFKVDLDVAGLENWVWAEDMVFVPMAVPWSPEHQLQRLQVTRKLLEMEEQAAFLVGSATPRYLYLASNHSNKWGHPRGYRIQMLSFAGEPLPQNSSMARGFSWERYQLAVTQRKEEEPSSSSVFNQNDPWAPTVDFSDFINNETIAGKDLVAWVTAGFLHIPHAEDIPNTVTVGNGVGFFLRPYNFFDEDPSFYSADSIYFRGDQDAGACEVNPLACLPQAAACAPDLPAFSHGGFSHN
Procedure: as §1, with “concentration. 5 μL of SSAO protein diluted in the enzyme reaction buffer was added to each well, the final concentration of which was 10 nM to 80 nM in 10 μL reaction system.” for “concentration.”
as §2

Recombinant human MAO-A = biological target: T3, Recombinant human MAO-A (Homo sapiens, UniProt P21397); assay: Inhibitory activity on MAO-A (MAO-Glo assay); conditions: recombinant human MAO-A 70 nM; compound 100 μM to 5 nM
T3 construct: purchased Sigma M7316
T3 sequence (P21397 1-527): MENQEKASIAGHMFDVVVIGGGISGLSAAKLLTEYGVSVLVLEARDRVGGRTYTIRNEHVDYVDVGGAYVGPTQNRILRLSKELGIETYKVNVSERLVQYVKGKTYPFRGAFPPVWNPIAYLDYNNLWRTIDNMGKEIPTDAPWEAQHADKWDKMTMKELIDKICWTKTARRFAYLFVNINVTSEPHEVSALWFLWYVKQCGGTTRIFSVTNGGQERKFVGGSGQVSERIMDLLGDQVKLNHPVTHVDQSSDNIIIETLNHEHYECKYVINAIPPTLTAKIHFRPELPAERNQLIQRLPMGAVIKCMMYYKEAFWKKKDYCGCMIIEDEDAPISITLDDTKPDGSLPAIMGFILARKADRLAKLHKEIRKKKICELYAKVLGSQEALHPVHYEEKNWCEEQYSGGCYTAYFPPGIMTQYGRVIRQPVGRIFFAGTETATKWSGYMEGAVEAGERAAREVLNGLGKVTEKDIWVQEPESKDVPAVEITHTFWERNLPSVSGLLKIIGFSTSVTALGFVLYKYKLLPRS
Procedure: as §1, §2, §3

[2] = biological target: T4, Recombinant human AOC1/DAO protein (Homo sapiens, UniProt P19801); assay: Inhibitory activity on AOC1 (Amplex UltraRed/HRP, putrescine substrate); conditions: compound 100 μM to 5 nM
T4 construct: purchased R&D systems 8298-AO
T4 sequence (P19801 20-751): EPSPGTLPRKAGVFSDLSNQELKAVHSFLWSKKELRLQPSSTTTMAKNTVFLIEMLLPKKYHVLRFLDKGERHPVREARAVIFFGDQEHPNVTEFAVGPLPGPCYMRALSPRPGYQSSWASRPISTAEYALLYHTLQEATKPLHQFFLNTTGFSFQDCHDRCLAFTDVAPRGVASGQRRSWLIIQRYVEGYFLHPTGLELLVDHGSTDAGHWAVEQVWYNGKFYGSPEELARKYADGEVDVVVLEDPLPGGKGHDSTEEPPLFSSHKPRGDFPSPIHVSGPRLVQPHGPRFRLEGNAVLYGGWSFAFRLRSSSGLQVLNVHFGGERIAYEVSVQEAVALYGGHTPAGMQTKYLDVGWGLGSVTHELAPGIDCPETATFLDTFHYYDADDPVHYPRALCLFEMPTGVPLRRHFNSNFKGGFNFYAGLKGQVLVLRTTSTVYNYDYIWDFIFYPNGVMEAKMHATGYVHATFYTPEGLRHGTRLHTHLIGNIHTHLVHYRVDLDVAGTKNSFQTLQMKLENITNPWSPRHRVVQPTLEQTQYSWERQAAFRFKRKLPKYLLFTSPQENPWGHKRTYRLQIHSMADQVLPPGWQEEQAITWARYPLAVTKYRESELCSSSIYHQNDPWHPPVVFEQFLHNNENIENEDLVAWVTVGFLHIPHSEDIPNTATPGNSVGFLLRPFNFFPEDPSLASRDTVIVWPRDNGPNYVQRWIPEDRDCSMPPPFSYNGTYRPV
Procedure: Recombinant human AOC1/DAO protein was purchased from R&D systems (Cat: 8298-AO). Amplex UltraRed was purchased from Thermo scientific (Cat: A36006). HRP (Cat: P8250) and Putrescine (Cat: V900377) were purchased from Sigma. Enzyme reaction buffer (50 mM HEPES, 120 mM NaCl, 5 mM KCl, 2 mM CaCl2, 1.4 mM MgCl2, 0.001% Tween-20, pH7.4) was prepared. Test compound was dissolved in DMSO and serially diluted by 3-fold. The final concentration of test compound in 10 μL reaction system was 100 μM to 5 nM when AOC1 activity was detected. The content of DMSO in detection reaction system was 1%. After the DMSO solution of test compound was diluted in the enzyme reaction buffer at a volume ratio of 1:25, 10 μL of mixture was added to each well of detection plate. 4× substrate mixture (containing 400 μM Putrescine, 4U/mL HRP, 4 μM Amplex UltraRed) was prepared in the enzyme reaction buffer, 10 μL of which was added to each well. 20 μL of AOC1 protein diluted in enzyme reaction buffer was added to each well and the final concentration was 0.4 nM in 40 μL reaction system. Synergy Neo 2 was used to read the plate for detection. […] The enzyme activity was calculated based on the increased signal of each well from the 10th minute to the 30th minute. […]
as §2

[3] = biological target: T5, Recombinant human AOC2 protein (Homo sapiens, UniProt O75106); assay: Inhibitory activity on AOC2 (MAO-Glo assay); conditions: compound 100 μM to 5 nM
T5 construct: Eli Lilly (provided, not purchased)
T5 sequence (O75106 1-756): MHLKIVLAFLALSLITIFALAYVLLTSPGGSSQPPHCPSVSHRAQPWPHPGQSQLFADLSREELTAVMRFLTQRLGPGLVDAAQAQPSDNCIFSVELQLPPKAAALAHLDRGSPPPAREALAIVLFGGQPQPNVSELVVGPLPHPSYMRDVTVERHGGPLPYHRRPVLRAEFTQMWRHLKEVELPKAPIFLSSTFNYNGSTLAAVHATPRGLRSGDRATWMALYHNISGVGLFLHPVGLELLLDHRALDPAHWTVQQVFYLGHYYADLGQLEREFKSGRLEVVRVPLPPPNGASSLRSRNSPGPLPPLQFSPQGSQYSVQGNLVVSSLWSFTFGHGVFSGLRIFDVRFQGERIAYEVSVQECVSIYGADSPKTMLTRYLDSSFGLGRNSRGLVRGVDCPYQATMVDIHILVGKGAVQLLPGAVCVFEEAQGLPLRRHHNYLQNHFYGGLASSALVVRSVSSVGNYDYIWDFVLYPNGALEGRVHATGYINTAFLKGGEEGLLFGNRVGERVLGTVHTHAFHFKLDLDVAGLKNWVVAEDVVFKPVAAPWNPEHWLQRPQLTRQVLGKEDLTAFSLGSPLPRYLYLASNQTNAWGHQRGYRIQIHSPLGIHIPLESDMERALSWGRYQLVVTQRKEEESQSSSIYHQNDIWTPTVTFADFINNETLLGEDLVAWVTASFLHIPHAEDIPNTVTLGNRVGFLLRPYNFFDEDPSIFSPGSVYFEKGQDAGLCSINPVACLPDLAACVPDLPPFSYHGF
Procedure: as §1, with “1%.” for “1%. After the DMSO solution of test compounds was diluted in the enzyme reaction buffer at a volume ratio of 1:25, 2.5 μL of the solution was added to each well of detection plate with two replicates for each concentration.”
as §2
Recombinant human AOC2 protein (provided by Eli Lilly). […] The final concentration of test compound in 10 μL reaction system was 100 μM to 5 nM when AOC2 activity was detected, while other reaction conditions were the same as those in Biological Test Example 1. […]

Work on `COCC1(O)CCN(c2ncc(OC/C(=C/F)CN)cn2)CC1` [Example 2, (E)-1-(5-((2-(aminomethyl)-3-fluoroallyl)oxy)pyrimidin-2-yl)-4-(methoxymethyl)piperidin-4-ol] yielded an IC50 (Recombinant human MAO-B) of over 20 µM, an IC50 [1] of under 0.01 µM and an IC50 (Recombinant human MAO-A) of over 100 µM. The IC50 [2] was 0.1 to 10 µM and the IC50 [3] was over 1 µM.
With `CC1(O)CCN(c2ncc(OC/C(=C/F)CN)cn2)CC1` [Example 1, (E)-1-(5-((2-(Aminomethyl)-3-fluoroallyl)oxy)pyrimidin-2-yl)-4-methylpiperidin-4-ol] the IC50 (Recombinant human MAO-B) was over 20 µM, the IC50 [1] was under 0.01 µM and the IC50 (Recombinant human MAO-A) was 10 to 100 µM. The IC50 [2] was over 10 µM and the IC50 [3] was over 1 µM.
